Assay results published in US9290453B2 (Merck Sharp & Dohme Corp., priority 2010, dated 2016).

target: T1, hCRTH2 (Homo sapiens, UniProt Q9Y5Y4); test: Radioligand Binding Assay B (scintillation proximity assay, [3H]-PGD2, HEK-hCRTH2 membranes); settings: Table B, Radioligand Binding Assay B (SPA), rated A-D
T1 construct: expressed in transfected cells; host or cells: HEK (human embryonic kidney) cells expressing hCRTH2
T1 sequence (Q9Y5Y4 1-395): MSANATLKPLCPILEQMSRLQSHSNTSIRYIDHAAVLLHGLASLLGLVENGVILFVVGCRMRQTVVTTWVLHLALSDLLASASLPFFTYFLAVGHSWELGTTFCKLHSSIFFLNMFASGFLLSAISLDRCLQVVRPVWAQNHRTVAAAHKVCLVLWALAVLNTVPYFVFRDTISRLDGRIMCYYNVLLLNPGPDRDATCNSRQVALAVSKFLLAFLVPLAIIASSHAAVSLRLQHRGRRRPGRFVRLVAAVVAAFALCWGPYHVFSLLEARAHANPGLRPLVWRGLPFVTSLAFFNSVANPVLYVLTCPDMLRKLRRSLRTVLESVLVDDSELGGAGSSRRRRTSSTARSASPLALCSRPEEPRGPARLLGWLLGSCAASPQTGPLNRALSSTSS

Question: For O=C(O)CCCCc1cc2cc(C(=O)N3CCN(c4ccc(F)cc4)CC3)ccc2nc1-c1ccc(Cl)cc1 [Compound 5BU, 5-(2-(4-chlorophenyl)-6-(4-(4-fluorophenyl)piperazine-1-carbonyl)quinolin-3-yl)pentanoic acid], which Ki is on record?
Answer: 2.1 to 20 nM

Question: CC1(C)CCC(NC(=O)c2ccc3nc(-c4ccc(Cl)cc4)c(CCCCC(=O)O)cc3c2)c2ccccc21 (stereo not drawn) [Compound 5Bi, 5-(2-(4-chlorophenyl)-6-((4,4-dimethyl-1,2,3,4-tetrahydronaphthalen-1-yl)carbamoyl)quinolin-3-yl)pentanoic acid] was tested. Which Ki did it give?
Answer: 2.1 to 20 nM

Question: How did the Ki turn out when O=C(O)CCCCc1cc2cc(C(=O)N3CCC4(CC3)OCc3ccccc34)ccc2nc1-c1ccc(Cl)cc1 [Compound 5Bo, 5-(2-(4-chlorophenyl)-6-(3H-spiro[isobenzofuran-1,4′-piperidin]-1′-ylcarbonyl)quinolin-3-yl)pentanoic acid] was run?
Answer: 2.1 to 20 nM
